Among the data in patent publication US9745283B2, “Uracil derivatives as AXL and c-MET kinase inhibitors” (priority 2011, dated 2017) are IC50 values, retold here.

pIC50: −log10 of the molar value.

By pIC50 is commonly meant −log10 of the IC50, conventionally taken in molar units.

The experiment deals with recombinant human baculovirus-expressed cMET (Homo sapiens (Human), UniProt P08581). The experiment in a line: C-MET Kinase Assay (HTRF KinEASE). It is filed as biochemical. The settings on record: average of two or more determinations; read-out: c-MET IC50. On the procedure: The cMET kinase assay was performed in 384-well Fluotrac™ 200 HiBase microplates using the HTRF KinEASE™ assay described above for AXL except that the assay volume was reduced to half. Enzyme concentration was 8 ng/mL of recombinant human baculovirus-expressed cMET while the substrate concentrations were 0.1 μM and 0.02 μM for the biotinylated peptide and ATP, respectively. Instead of the Multidrop Combi, the BioRAPTR® FRD microfluidic workstation (Beckman Coulter, Brea, Calif.) was utilized for reagent additions.
Inhibition curves for compounds were generated by plotting percent control activity versus log 10 of the concentration of compound. IC50 values were calculated by nonlinear regression using the sigmoidal dose-response (variable slope) equation in GraphPad Prism as follows: y=bottom+(top−bottom)/(1+10(log IC50−x)*Hill Slope) where y is the % kinase activity at a given concentration of compound, x is the logarithm of the concentration of compound, bottom is the % of control kinase activity at the highest compound concentration tested, and top is the % of control kinase activity at the lowest compound concentration examined. The values for bottom and top were fixed at 0 and 100, respectively.

Take `COc1cc2nccc(Oc3ccc(NC(=O)c4cn(C(C)C)c(=O)n(-c5ccc(F)cc5)c4=O)cc3)c2cc1C#N` [Example 56, 3-(4-Fluorophenyl)-1-isopropyl-2,4-dioxo-1,2,3,4-tetrahydropyrimidine-5-carboxylic acid [4-(6-cyano-7-methoxy-quinolin-4-yloxy)-phenyl]-amide]: the pIC50 was 7.00 to 8.00.

As for `COc1cc2nccc(Oc3c(F)cc(NC(=O)c4c[nH]c(=O)n(-c5ccc(F)cc5)c4=O)cc3F)c2cc1OC` [Example 89, 3-(4-Fluoro-phenyl)-2,4-dioxo-1,2,3,4-tetrahydropyrimidine-5-carboxylic acid [4-(6,7-dimethoxy-quinolin-4-yloxy)-3,5-difluoro-phenyl]-amide], the negative logarithm of the IC50 (pIC50) is 6.00 to 7.00.

As to `CCn1nc(C(=O)Nc2ccc(Oc3ccnc4cc(OC)c(OC)cc34)cc2OC)c(=O)n(-c2ccc(F)cc2)c1=O` [Example 170, 2-Ethyl-4-(4-fluoro-phenyl)-3,5-dioxo-2,3,4,5-tetrahydro-1,2,4-triazine-6-carboxylic acid [4-(6,7-dimethoxy-quinolin-4-yloxy)-2-methoxy-phenyl]-amide], the pIC50 is 7.00 to 8.00.

Turning to `C=CCn1c(=O)c(C(=O)Nc2ccc(Oc3ccnc4cc(OC)c(OC)cc34)c(F)c2)nn(C)c1=O` [Example 124, 4-Allyl-2-methyl-3,5-dioxo-2,3,4,5-tetrahydro-[1,2,4]triazine-6-carboxylic acid [4-(6,7-dimethoxy-quinolin-4-yloxy)-3-fluoro-phenyl]-amide], the pIC50 was 7.00 to 8.00.

Consider `COc1cc2nccc(Oc3ccc(NC(=O)c4cn(C(C)C)c(=O)n(-c5ccc(F)cc5)c4=O)cc3C)c2cc1OC` [Example 163, 3-(4-Fluoro-phenyl)-1-isopropyl-2,4-dioxo-1,2,3,4-tetrahydro-pyrimidine-5-carboxylic acid [4-(6,7-dimethoxy-quinolin-4-yloxy)-3-methyl-phenyl]-amide], for which the pIC50 is 7.00 to 8.00.

For `CCn1cc(C(=O)Nc2ccc(Nc3ccnc4cc(OC)c(OC)cc34)cc2)c(=O)n(-c2ccc(F)cc2)c1=O` [Example 134, 1-Ethyl-3-(4-fluoro-phenyl)-2,4-dioxo-1,2,3,4-tetrahydro-pyrimidine-5-carboxylic acid [4-(6,7-dimethoxy-quinolin-4-ylamino)-phenyl]-amide], the pIC50 is 6.00 to 7.00.

Regarding `CCn1c(=O)c(C(=O)Nc2ccc(Oc3ccnc4cc(OC)c(OC)cc34)c(F)c2)nn(C)c1=O` [Example 123, 4-Ethyl-2-methyl-3,5-dioxo-2,3,4,5-tetrahydro-[1,2,4]triazine-6-carboxylic acid [4-(6,7-dimethoxyquinolin-4-yloxy)-3-fluoro-phenyl]-amide], the pIC50 is 6.00 to 7.00.

For `CCn1cc(C(=O)Nc2ccc(Oc3ccnc4cc(O)c(OC)cc34)c(F)c2)c(=O)n(-c2ccc(F)cc2)c1=O` [Example 42, 1-Ethyl-3-(4-fluorophenyl)-2,4-dioxo-1,2,3,4-tetrahydropyrimidine-5-carboxylic acid [3-fluoro-4-(7-hydroxy-6-methoxyquinolin-4-yloxy)phenyl]-amide], the pIC50 is 7.00 to 8.00.

With `C#CCn1cc(C(=O)Nc2ccc(Oc3ccnc4cc(OC)c(OC)cc34)c(F)c2)c(=O)n(CC#C)c1=O` [Example 98, 2,4-Dioxo-1,3-di-prop-2-ynyl-1,2,3,4-tetrahydro-pyrimidine-5-carboxylic acid [4-(6,7-dimethoxy-quinolin-4-yloxy)-3-fluoro-phenyl]-amide], the pIC50 was 7.00 to 8.00.

On to `CCn1nc(C(=O)Nc2ccc(Oc3ccnc4cc(OC)c(OC)cc34)c(C(F)(F)F)c2)c(=O)n(-c2ccc(F)cc2)c1=O` [Example 169, 2-Ethyl-4-(4-fluoro-phenyl)-3,5-dioxo-2,3,4,5-tetrahydro-1,2,4-triazine-6-carboxylic acid [4-(6,7-dimethoxy-quinolin-4-yloxy)-3-trifluoromethyl-phenyl]-amide], for which the pIC50 is above 8.00.

With `COc1cc2nccc(Oc3ccc(NC(=O)c4cn(CCCOCc5ccccc5)c(=O)n(-c5ccc(F)cc5)c4=O)cc3F)c2cc1OC` [Example 13, 1-(3-Benzyloxypropyl)-3-(4-fluorophenyl)-2,4-dioxo-1,2,3,4-tetrahydropyrimidine-5-carboxylic acid [4-(6,7-dimethoxyquinolin-4-yloxy)-3-fluorophenyl]-amide], the pIC50 was 7.00 to 8.00.

For `CCn1cc(C(=O)Nc2cc(C)c(Oc3ccnc4cc(OC)c(OC)cc34)c(C)c2)c(=O)n(-c2ccc(F)cc2)c1=O` [Example 161, 1-Ethyl-3-(4-fluoro-phenyl)-2,4-dioxo-1,2,3,4-tetrahydro-pyrimidine-5-carboxylic acid [4-(6,7-dimethoxy-quinolin-4-yloxy)-3,5-dimethyl-phenyl]-amide], the pIC50 is 7.00 to 8.00.

Turning to `CCn1cc(C(=O)Nc2ccc(Oc3ccnc4cc(OCCOC)c(OC)cc34)c(F)c2)c(=O)n(-c2ccc(F)cc2)c1=O` [Example 44, 1-Ethyl-3-(4-fluorophenyl)-2,4-dioxo-1,2,3,4-tetrahydropyrimidine-5-carboxylic acid {3-fluoro-4-[6-methoxy-7-(2-methoxyethoxy)quinolin-4-yloxy]-phenyl}-amide], the pIC50 was 7.00 to 8.00.

For `COc1cc2nccc(Oc3ccc(NC(=O)c4cn(C(C)C)c(=O)n(-c5ccc(F)cc5)c4=O)cc3C3CC3)c2cc1OC` [Example 60, 3-(4-Fluoro-phenyl)-1-isopropyl-2,4-dioxo-1,2,3,4-tetrahydro-pyrimidine-5-carboxylic acid [3-cyclopropyl-4-(6,7-dimethoxy-quinolin-4-yloxy)-phenyl]-amide], the pIC50 was 6.00 to 7.00.

Consider `COc1cc2nccc(Oc3ccc(NC(=O)c4nn(CC5CC5)c(=O)n(-c5ccc(F)cc5)c4=O)cc3F)c2cc1OC` [Example 133, 2-Cyclopropylmethyl-4-(4-fluorophenyl)-3,5-dioxo-2,3,4,5-tetrahydro-[1,2,4]triazine-6-carboxylic acid [4-(6,7-dimethoxy-quinolin-4-yloxy)-3-fluoro-phenyl]-amide], for which the pIC50 is 7.00 to 8.00.

With `COc1cc2nccc(Oc3ccc(NC(=O)c4cn(CC=C(C)C)c(=O)n(CC=C(C)C)c4=O)cc3F)c2cc1OC` [Example 97, 1,3-Bis-(3-methyl-but-2-enyl)-2,4-dioxo-1,2,3,4-tetrahydro-pyrimidine-5-carboxylic acid [4-(6,7-dimethoxy-quinolin-4-yloxy)-3-fluoro-phenyl]-amide], the pIC50 is 6.00 to 7.00.

For the compound `COc1cc2nccc(Oc3ccc(NC(=O)c4cn(C(C(C)=O)C(=O)N(C)C)c(=O)n(-c5ccc(F)cc5)c4=O)cc3F)c2cc1OC` (centres unmarked) [Example 84, 1-(1-Dimethylcarbamoyl-2-oxo-propyl)-3-(4-fluoro-phenyl)-2,4-dioxo-1,2,3,4-tetrahydro-pyrimidine-5-carboxylic acid [4-(6,7-dimethoxy-quinolin-4-yloxy)-3-fluoro-phenyl]-amide], the pIC50 is 7.00 to 8.00.

Take `CCCCCn1cc(C(=O)Nc2ccc(Oc3ccnc4cc(OC)c(OC)cc34)c(F)c2)c(=O)n(-c2ccc(F)cc2)c1=O` [Example 36, 3-(4-Fluorophenyl)-2,4-dioxo-1-pentyl-1,2,3,4-tetrahydropyrimidine-5-carboxylic acid [4-(6,7-dimethoxyquinolin-4-yloxy)-3-fluorophenyl]-amide]: the pIC50 is 7.00 to 8.00.

Consider `CCn1cc(C(=O)Nc2ccc(Oc3ccnc4cc(OC)c(OC)cc34)c(F)c2)c(=O)n(CC)c1=O` [Example 93, 1,3-Diethyl-2,4-dioxo-1,2,3,4-tetrahydro-pyrimidine-5-carboxylic acid [4-(6,7-dimethoxy-quinolin-4-yloxy)-3-fluoro-phenyl]-amide], for which the negative logarithm of the IC50 (pIC50) is 7.00 to 8.00.

Regarding `COc1cc2nccc(Oc3ccc(NC(=O)c4cn(C(C)C)c(=O)n(-c5ccc(F)cc5)c4=O)cc3C(F)(F)F)c2cc1OC` [Example 160, 3-(4-Fluoro-phenyl)-1-isopropyl-2,4-dioxo-1,2,3,4-tetrahydro-pyrimidine-5-carboxylic acid [4-(6,7-dimethoxy-quinolin-4-yloxy)-3-trifluoromethyl-phenyl]-amide], the pIC50 was 6.00 to 7.00.

With `CCn1cc(C(=O)Nc2ccc(Oc3ccnc4cc(OCCCN5CCOCC5)c(OC)cc34)c(F)c2)c(=O)n(-c2ccc(F)cc2)c1=O` [Example 43, 1-Ethyl-3-(4-fluorophenyl)-2,4-dioxo-1,2,3,4-tetrahydropyrimidine-5-carboxylic acid {3-fluoro-4-[6-methoxy-7-(3-morpholin-4-yl-propoxy)quinolin-4-yloxy]phenyl}-amide], the pIC50 is 7.00 to 8.00.

As to `COc1cc2nccc(Oc3ccc(NC(=O)c4cn(CC(=O)OC(C)(C)C)c(=O)n(-c5ccc(F)cc5)c4=O)cc3F)c2cc1OC` [Example 70, [5-[4-(6,7-Dimethoxy-quinolin-4-yloxy)-3-fluoro-phenylcarbamoyl]-3-(4-fluoro-phenyl)-2,4-dioxo-3,4-dihydro-2H-pyrimidin-1-yl]-acetic acid tert-butyl ester], the pIC50 is 7.00 to 8.00.

As for `COc1cc(Oc2ccnc3cc(OC)c(OC)cc23)ccc1NC(=O)c1nn(C(C)C)c(=O)n(-c2ccc(F)cc2)c1=O` [Example 166, 4-(4-Fluoro-phenyl)-2-isopropyl-3,5-dioxo-2,3,4,5-tetrahydro-1,2,4-triazine-6-carboxylic acid [4-(6,7-dimethoxy-quinolin-4-yloxy)-2-methoxy-phenyl]-amide], the pIC50 was 6.00 to 7.00.
